Legend:
[1] = molecular target: T1, AP2-associated protein kinase 1 (Homo sapiens, UniProt Q2M2I8); test: Inhibition of bacterially expressed GST-Xa-tagged human AAK1 using 5-FAM-labelled Aha-KEEQSQITSQVTGQIGWR-NH2 peptide as substrate incubated for 3 hrs in presence of ATP by electrophoretic analysis
[2] = molecular target: AP2-associated protein kinase 1 (Mus musculus, UniProt Q3UHJ0); test: Displacement of 3H-LP-927443 from AAK1 in C57BL6 mouse brain homogenate assessed as inhibition constant incubated for 1 hr by liquid scintillation counter analysis; format: tissue-based
Sequence of AP2-associated protein kinase 1 (Mus musculus, UniProt Q3UHJ0) (Q3UHJ0 whole entry): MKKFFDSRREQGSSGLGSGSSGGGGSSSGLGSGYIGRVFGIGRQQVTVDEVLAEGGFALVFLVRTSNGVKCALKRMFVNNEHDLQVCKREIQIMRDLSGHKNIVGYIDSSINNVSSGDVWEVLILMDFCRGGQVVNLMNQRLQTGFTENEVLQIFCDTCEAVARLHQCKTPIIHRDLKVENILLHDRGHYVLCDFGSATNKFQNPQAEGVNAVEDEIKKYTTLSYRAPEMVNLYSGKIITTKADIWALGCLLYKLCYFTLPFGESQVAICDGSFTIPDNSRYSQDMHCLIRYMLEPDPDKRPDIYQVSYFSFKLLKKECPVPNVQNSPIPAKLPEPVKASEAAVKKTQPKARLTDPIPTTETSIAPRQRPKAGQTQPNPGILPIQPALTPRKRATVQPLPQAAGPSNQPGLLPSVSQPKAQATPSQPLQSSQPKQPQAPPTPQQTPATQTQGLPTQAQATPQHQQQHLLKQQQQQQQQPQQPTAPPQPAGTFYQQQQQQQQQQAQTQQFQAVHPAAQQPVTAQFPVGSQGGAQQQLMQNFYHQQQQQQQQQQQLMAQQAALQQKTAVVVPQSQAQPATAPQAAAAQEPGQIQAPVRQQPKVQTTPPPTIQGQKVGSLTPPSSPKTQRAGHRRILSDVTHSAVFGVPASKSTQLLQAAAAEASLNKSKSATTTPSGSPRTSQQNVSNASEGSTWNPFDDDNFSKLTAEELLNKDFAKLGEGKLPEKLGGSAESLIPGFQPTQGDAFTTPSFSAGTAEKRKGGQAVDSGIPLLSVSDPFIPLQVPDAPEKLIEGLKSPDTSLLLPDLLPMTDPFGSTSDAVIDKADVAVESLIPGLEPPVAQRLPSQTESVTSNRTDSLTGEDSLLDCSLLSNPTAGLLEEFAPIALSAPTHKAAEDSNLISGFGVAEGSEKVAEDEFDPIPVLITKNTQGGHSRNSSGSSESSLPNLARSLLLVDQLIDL

[3] = molecular target: T1, AP2-associated protein kinase 1; test: Inhibition of full length human AAK1 expressed in HEK293F cells assessed as suppression of AP2 phosphorylation measured after 3 hrs by Western blot analysis based cellular assay; format: cell-based
[4] = Metabolic stability in human liver microsomes assessed as parent compound remaining at 0.5 uM incubated for 10 mins in presence of NADPH by LC-MS/MS analysis; format: ADME, Microsome; details: read-out: Stability
[5] = Metabolic stability in rat liver microsomes assessed as parent compound remaining at 0.5 uM incubated for 10 mins in presence of NADPH by LC-MS/MS analysis; format: ADME, Microsome; details: read-out: Stability
[6] = Metabolic stability in mouse liver microsomes assessed as parent compound remaining at 0.5 uM incubated for 10 mins in presence of NADPH by LC-MS/MS analysis; format: ADME, Microsome; details: liver microsomes, read-out: Stability
Cytochrome P450 3A4 = Cytochrome P450 3A4 (Homo sapiens, UniProt P08684); test: Inhibition of CYP3A4 (unknown origin) incubated for 10 mins in presence of NADPH by LC-MS/MS analysis; format: ADME
Sequence of Cytochrome P450 3A4 (P08684 whole entry): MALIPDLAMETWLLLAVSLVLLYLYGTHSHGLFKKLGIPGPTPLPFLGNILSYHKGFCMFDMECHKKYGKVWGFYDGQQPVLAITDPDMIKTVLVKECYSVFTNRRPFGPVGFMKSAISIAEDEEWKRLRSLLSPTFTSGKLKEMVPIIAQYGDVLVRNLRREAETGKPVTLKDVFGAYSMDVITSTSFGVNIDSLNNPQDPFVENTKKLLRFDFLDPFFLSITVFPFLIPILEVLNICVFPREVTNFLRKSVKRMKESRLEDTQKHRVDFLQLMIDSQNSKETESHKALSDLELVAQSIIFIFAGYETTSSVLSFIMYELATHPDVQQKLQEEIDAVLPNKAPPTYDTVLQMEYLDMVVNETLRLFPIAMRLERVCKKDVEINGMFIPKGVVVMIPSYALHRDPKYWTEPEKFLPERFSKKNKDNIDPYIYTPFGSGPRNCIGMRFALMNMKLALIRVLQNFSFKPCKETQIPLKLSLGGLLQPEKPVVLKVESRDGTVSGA

T1 sequence (Q2M2I8 whole entry): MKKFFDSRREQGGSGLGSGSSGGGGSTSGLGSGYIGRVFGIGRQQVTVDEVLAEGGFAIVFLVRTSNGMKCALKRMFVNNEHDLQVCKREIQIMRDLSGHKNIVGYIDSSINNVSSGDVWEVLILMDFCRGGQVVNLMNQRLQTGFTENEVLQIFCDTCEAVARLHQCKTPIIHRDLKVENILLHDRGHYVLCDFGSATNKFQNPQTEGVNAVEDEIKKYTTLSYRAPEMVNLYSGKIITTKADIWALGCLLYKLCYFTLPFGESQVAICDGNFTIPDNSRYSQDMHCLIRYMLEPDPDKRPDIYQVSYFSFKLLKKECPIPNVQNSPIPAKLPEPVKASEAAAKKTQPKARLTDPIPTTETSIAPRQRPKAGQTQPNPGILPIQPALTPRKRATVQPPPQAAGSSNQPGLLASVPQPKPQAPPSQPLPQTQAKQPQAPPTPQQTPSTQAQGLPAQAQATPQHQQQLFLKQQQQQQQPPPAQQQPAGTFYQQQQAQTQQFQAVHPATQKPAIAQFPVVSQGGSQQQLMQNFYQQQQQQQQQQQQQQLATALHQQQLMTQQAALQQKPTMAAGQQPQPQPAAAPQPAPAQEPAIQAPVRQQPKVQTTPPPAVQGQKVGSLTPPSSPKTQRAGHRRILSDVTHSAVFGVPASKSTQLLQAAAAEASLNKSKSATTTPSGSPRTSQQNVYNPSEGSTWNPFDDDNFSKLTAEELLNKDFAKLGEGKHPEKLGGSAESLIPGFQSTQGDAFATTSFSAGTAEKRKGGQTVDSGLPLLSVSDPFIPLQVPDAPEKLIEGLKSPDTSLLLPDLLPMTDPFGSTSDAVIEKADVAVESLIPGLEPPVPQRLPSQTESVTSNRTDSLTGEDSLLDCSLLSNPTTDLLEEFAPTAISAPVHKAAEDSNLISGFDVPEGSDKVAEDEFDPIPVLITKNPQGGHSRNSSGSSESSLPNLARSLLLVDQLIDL

Structure (SMILES)	IC50 [1] [nM]	Ki [2] [nM]	IC50 [3] [nM]	remaining at 10 min, 0.5 µM [4] [%]	remaining at 10 min, 0.5 µM [5] [%]	remaining at 10 min, 0.5 µM [6] [%]	IC50 (Cytochrome P450 3A4) [nM]
COC(=O)Nc1cc(-c2ccc(OC[C@@](C)(N)CC(C)C)c(Cl)c2)ccn1 (racemic)	0.5	0.09	1.4	81	85	66	740
CC(C)C[C@](C)(N)COc1cnc(-c2ccnc(Cl)c2)cc1Cl	–	–	–	86	98	92	> 20000
CC(=O)Nc1cc(-c2cc(F)c(OC[C@@H](N)CC(C)C)c(F)c2)ccn1	–	27	–	90	100	90	1300
COC(=O)Nc1cc(-c2cc(OC)c(OC[C@@](C)(N)CC(C)C)cn2)ccn1	3.5	–	–	91	96	100	> 20000
COC(=O)Nc1cc(-c2cc(C(F)(F)F)c(OC[C@@](C)(N)CC(C)C)cn2)ccn1	0.4	–	0.4	80	79	78	5300
CC(=O)Nc1cc(-c2cc(F)c(OC[C@@H](N)CC(C)C)c(C(F)(F)F)c2)ccn1	5	1.5	4.8	74	91	69	470
CC(=O)Nc1cc(-c2ccc(OC[C@@H](N)CC(C)C)c(Cl)c2)ccn1	0.5	0.06	0.2	89	100	86	2600
COC(=O)Nc1cc(-c2ccc(OC[C@@H](N)CC(C)C)c(-c3ccno3)c2)ccn1	0.8	0.08	4.1	91	76	53	180
CC(=O)Nc1cc(-c2ccc(OC[C@@](C)(N)CC(C)C)c(OC(F)(F)F)c2)ccn1	0.8	0.07	1.6	54	87	27	9500
COC(=O)Nc1cc(-c2ccc(OC[C@@](C)(N)CC(C)C)c(C#N)c2)ccn1	0.5	0.07	0.8	57	88	69	13000
CC(=O)Nc1cc(-c2cc(F)c(OC[C@@H](N)CC(C)C)c(Cl)c2)ccn1	–	2.5	6.8	94	97	75	800
Cc1cc(-c2cc(C(F)(F)F)c(OC[C@@](C)(N)CC(C)C)cn2)ccn1	1.2	–	–	90	75	65	> 20000
COC(=O)Nc1cc(-c2ccc(OC[C@@](C)(N)CC(C)C)c(C)c2C)ccn1 (racemic)	4.5	0.26	9.7	93	83	70	–
COC(=O)Nc1cc(-c2cc(Cl)c(OC[C@@](C)(N)CC(C)C)cn2)ccn1	1.1	0.11	–	96	99	87	> 20000
COC(=O)Nc1cc(-c2ccc(OC[C@@](C)(N)CC(C)C)c(C3CC3)c2)ccn1	0.4	0.05	1	100	80	33	16300
CC(=O)Nc1cc(-c2ccc(OC[C@@H](N)CC(C)C)c(C(F)(F)F)c2)ccn1	0.4	0.04	0.75	91	82	53	330
CC(C)C[C@H](N)COc1ccc(-c2ccnc(N)c2)cc1	21	13	–	–	–	–	–
COC(=O)Nc1cc(-c2ccc(OC[C@@](C)(N)CC(C)C)c(F)c2)ccn1	1.1	0.2	–	82	94	71	> 20000
CC(=O)Nc1cc(-c2ccc(OC[C@@](C)(N)CC(C)C)c(C(F)(F)F)c2)ccn1	0.4	0.04	0.4	66	90	54	14000
Cc1cc(-c2cc(C)c(OC[C@@](C)(N)CC(C)C)cn2)ccn1	19	4.7	–	79	72	72	–
COC(=O)Nc1cc(-c2ccc(OC[C@@](C)(N)CC(C)C)c(C)c2)ccn1 (racemic)	0.8	0.08	0.8	98	96	75	> 20000
COC(=O)Nc1cc(-c2ccc(OC[C@@](C)(N)CC(C)C)cn2)ccn1 (racemic)	23	18	–	93	100	93	> 20000
COC(=O)Nc1cc(-c2ccc(OC[C@@H](N)CC(C)C)c(F)c2)ccn1	1.2	–	–	92	84	80	2100
COC(=O)Nc1cc(-c2cc(C(F)F)c(OC[C@@](C)(N)CC(C)C)cn2)ccn1	0.4	0.07	–	79	87	63	> 20000
COC(=O)Nc1cc(-c2ccc(OC[C@@](C)(N)CC(C)C)c(CO)c2)ccn1	–	0.63	3.9	91	100	95	> 20000
COC(=O)Nc1cc(-c2cnc(OC[C@@](C)(N)CC(C)C)cc2C)ccn1	490	41	–	98	87	69	> 20000
CC(=O)Nc1cc(-c2ccc(OC[C@@](C)(N)CC(C)C)c(C(F)F)c2)ccn1	0.6	0.05	0.5	74	84	57	–
COC(=O)Nc1cc(-c2ccc(OC[C@@](C)(N)CC(C)C)nc2)ccn1	28	4.9	–	100	96	79	> 20000
CC(C)C[C@H](N)COc1ccc(-c2ccnc(NCc3ccccc3)c2)cc1	127	–	–	–	–	–	–
CC(=O)Nc1cc(-c2ccc(OC[C@@H](N)CC(C)C)cc2)ccn1	4.6	0.9	8.1	–	–	–	–

— ChEMBL document CHEMBL5154787 (J Med Chem, 2022)
